# Experimental data as given in US8921571B2, “Pyrrolysine analogs” (The Ohio State University, priority 2009, dated 2014).
# Counter-ions that a name gives are not always drawn. Like-named read-outs stand apart in the source and are kept apart here.
# Columns and labels:
# [1] = test system: UAG stop codon readthrough of mCherry (Lys55) with PylT/PylS genes from Methanosarcina mazei; assay: modified mCherry fluorescence protein assay for stop codon readthrough (Example 2); assay type: cell-based, E. coli strain BL21(DE3); conditions: for mCherry production: Terrific Broth
# Description: The site-specific incorporation efficiencies of these analogs were measured with a modified fluorescence protein assay using a fluorescent protein as a reporting gene to monitor stop codon readthrough. This approach was made compatible with large scale measurements by 1) using mCherry instead of GFP to reduce the fluorescence background introduced by growth medium, 2) growing the host cells in 24-well plates to facilitate handling of multiple samples and minimize deviation between samples, and 3) measuring the fluorescence intensity of the cell culture in the plates to save the labor of electrophoresis and western blotting.
# In this study, the Lys55 codon of mCherry was site-specifically mutated to UAG and inserted into the plasmid pPylST harbouring the pyrrolysine tRNA (PylT) and synthetase (PylS) genes from Methanosarcina mazei. E. coli strain BL21(DE3) transformed with this plasmid was grown in the Terrific Broth medium supplied with 2 mM pyrrolysine analog to be examined. […] These differences are seen in FIG. 3, where the results have been normalized against analog 3. Similar results were observed when the supplied analog concentration varied from 0.5 mM to 20 mM.
# As analogs 4-6 were prepared and screened as ˜1:1 mixtures of diastereomers, we carried out further readthrough experiments with isomerically pure samples of 6 prepared from commercially available (R)- and (S)-propargylglycines. The readthrough efficiencies of L-6, D-6 and the enantiomer mixture were tested at various concentrations. […] This is seen in FIG. 4. […] One explanation is that the less efficient incorporable isomer L-6 is a competitive inhibitor of D-6.
# The effect of the growth medium pH on the readthrough efficiency of D-6 was investigated using the modified mCherry assay. […] When 2 mM D-6 was used as substrate, the production of full-length mCherry increased as the pH of the growth medium increased. The total amount of produced mCherry peaked at pH 8.5 and dropped a little at pH 9.0 due to a lower cell density.
# [2] = test system: recombinant protein; assay: incorporation into a recombinant protein; assay type: cell-based
# [3] = test system: UAG codon readthrough of mCherry (Lys55 codon mutated to UAG) with PylT/PylS; assay: mCherry UAG codon readthrough assay (Example 1); assay type: cell-based, E. coli strain BL21(DE3); conditions: for readthrough of the UAG codon: Terrific Broth medium, varying concentrations
# Description: In order to evaluate the UAG codon readthrough efficiency for the two diastereomers, the brightly emitting red fluorescent protein, mCherry, was employed as a reporter. Briefly, the Lys55 codon of this protein was site-specifically mutated to UAG and inserted into the plasmid pPylST harbouring the pyrrolysine tRNA (PylT) and synthetase (PylS) genes. E. coli strain BL21(DE3) transformed with this plasmid was grown in the Terrific Broth medium supplied with either the (S,S)-isomer or (R,S)-isomer at varying concentrations. […] This is seen in the graph of FIG. 1, where the relative fluorescence of the (S,S)-isomer was higher at all concentrations.
# [4] = 2 mM analog, normalized against analog 3, ~1:1 mixture of diastereomers
structure (smiles),measurement,setting,value
C#CCC(N)C(=O)NCCCC[C@H](N)C(=O)O (stereo partly drawn) [Formula 6],readthrough efficiency (in words),[1],best substrate
same,"readthrough efficiency, more efficient than analog 3",[1]; [4],69%
"CC1(CC(=O)NCCCC[C@H](N)C(=O)O)N=N1 [Formula (11), N^6-(2-(3-Methyl-3H-diazirin-3-yl)acetyl)lysine trifluoroacetate]",incorporation into a recombinant protein,[2],incorporated into a recombinant protein
N[C@H](CS)C(=O)NCCCC[C@H](N)C(=O)O [Formula (1)],readthrough of the UAG codon,[3],enabled readthrough of the UAG codon
same,"readthrough efficiency, comparison of the two isomers","[3]; versus (R,S)-isomer, FIG. 1",much better substrate
N[C@@H](CCCCNC(=O)[C@@H](N)CS)C(=O)O [Formula (2)],readthrough of the UAG codon,[3],enabled readthrough of the UAG codon
C#CC[C@@H](N)C(=O)NCCCC[C@H](N)C(=O)O [Formula D-6],readthrough efficiency (in words),[1],highly efficient
same,"readthrough efficiency, fold more efficient than L-6","[1]; isomerically pure samples, various concentrations, FIG. 4",35 fold
C#CCC(N)C(=O)NCCCC[C@H](N)C(=O)O (stereo partly drawn) [Formula (6)],readthrough efficiency (in words),[1]; listed as enantiomer mixture,moderate efficiency
C#CCCC(=O)NCCCC[C@H](N)C(=O)O [Formula 7],mCherry production,[1]; 2 mM analog,no detectable mCherry production
"[N-]=[N+]=NCC(=O)NCCCC[C@H](N)C(=O)O [Formula (10), N^6-(Azidoacetyl)lysine trifluoroacetate]","readthrough efficiency, fold less efficient than analog 3",[1]; [4],30 fold
C#CCC(O)C(=O)NCCCC[C@H](N)C(=O)O (stereo partly drawn) [Formula 5],mCherry production,[1]; 2 mM analog,no detectable mCherry production
